Each structure is given as a SMILES string.

The assay has as its system termites. Kind of assay: Repellency to termites (termites moving through the treated area). Particulars: termites do not detect the active ingredient in the treated area and readily move through it, picking up a lethal dose. The format is in vivo. The source says:
[…], and in particular deltamethrin, an α-cyano-pyrethroid, are the preferred active ingredients of the insecticide formulation of this invention and provides the formulation with its insecticidal activity. The International Union of Pure and Applied Chemistry name for Deltamethrin is (S)-α-cyano-3-phenoxybenzyl (1R)-cis-3-(2,2-dibromovinyl)-2,2-dimethylcyclopropane-carboxylate. Deltamethrin is produced by AgrEvo Environmental Health of 95 Chestnut Ridge Road, Montvale, N.J., 07645. The concentration of deltamethrin in the insecticide formulation may range from 0.01 to 2% by weight of the insecticide without propellant, but is preferably from 0.01 to 0.5% by weight of the insecticide without propellant and most preferably from 0.10 to 0.30% by weight of the insecticide without the propellant.

As to `CC1(C)[C@H](C(=O)O[C@H](C#N)c2cccc(Oc3ccccc3)c2)[C@@H]1C=C(Br)Br` [deltamethrin, (S)-α-cyano-3-phenoxybenzyl (1R)-cis-3-(2,2-dibromovinyl)-2,2-dimethylcyclopropane-carboxylate], the Repellency to termites result is reported as “non-repellant to termites”.

Source of the values: patent US7510701B2, “Aerosol-based insecticide compositions and methods of using the same” (Waterbury Companies, Inc., priority 2001, dated 2009).
